Measured values reported in PubChem BioAssay (NCI).
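Briefly, cells in 96-well plates were exposed to five compound concentrations for 48 h, and endpoints were estimated by linear interpolation. The concentration for 50% growth inhibition is given as GI50. Definition used: TGI = concentration required for complete inhibition of growth.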

Tests used:
Test in all cases: NCI-60 cell line screen, 48 h
786-0 renal = test system: 786-0 renal
A498 renal = test system: A498 renal
A549 NSCLC = test system: A549 NSCLC
ACHN renal = test system: ACHN renal
BT-549 breast = test system: BT-549 breast
CAKI-1 renal = test system: CAKI-1 renal
CCRF-CEM leukemia = test system: CCRF-CEM leukemia
COLO 205 colon = test system: COLO 205 colon
DU-145 prostate = test system: DU-145 prostate
EKVX NSCLC = test system: EKVX NSCLC
HCC-2998 colon = test system: HCC-2998 colon
HCT-116 colon = test system: HCT-116 colon
HCT-15 colon = test system: HCT-15 colon
HL-60(TB) leukemia = test system: HL-60(TB) leukemia
HOP-62 NSCLC = test system: HOP-62 NSCLC
HOP-92 NSCLC = test system: HOP-92 NSCLC
HS 578T breast = test system: HS 578T breast
HT29 colon = test system: HT29 colon
IGROV1 ovarian = test system: IGROV1 ovarian
K-562 leukemia = test system: K-562 leukemia
KM12 colon = test system: KM12 colon
LOX IMVI melanoma = test system: LOX IMVI melanoma
M14 melanoma = test system: M14 melanoma
MALME-3M melanoma = test system: MALME-3M melanoma
MCF7 breast = test system: MCF7 breast
MDA-MB-231 breast = test system: MDA-MB-231 breast
MDA-MB-435 = test system: MDA-MB-435
MOLT-4 leukemia = test system: MOLT-4 leukemia
NCI-H226 lung = test system: NCI-H226 lung
NCI-H23 lung = test system: NCI-H23 lung
NCI-H460 lung = test system: NCI-H460 lung
NCI-H522 lung = test system: NCI-H522 lung
NCI/ADR-RES ovarian = test system: NCI/ADR-RES ovarian
OVCAR-3 ovarian = test system: OVCAR-3 ovarian
OVCAR-4 ovarian = test system: OVCAR-4 ovarian
OVCAR-5 ovarian = test system: OVCAR-5 ovarian
OVCAR-8 ovarian = test system: OVCAR-8 ovarian
PC-3 prostate = test system: PC-3 prostate
RPMI-8226 leukemia = test system: RPMI-8226 leukemia
RXF 393 renal = test system: RXF 393 renal
SF-268 CNS = test system: SF-268 CNS
SF-295 CNS = test system: SF-295 CNS
SF-539 CNS = test system: SF-539 CNS
SK-MEL-2 melanoma = test system: SK-MEL-2 melanoma
SK-MEL-28 melanoma = test system: SK-MEL-28 melanoma
SK-MEL-5 melanoma = test system: SK-MEL-5 melanoma
SK-OV-3 ovarian = test system: SK-OV-3 ovarian
SN12C renal = test system: SN12C renal
SNB-19 CNS = test system: SNB-19 CNS
SNB-75 CNS = test system: SNB-75 CNS
SW-620 colon = test system: SW-620 colon
T-47D breast = test system: T-47D breast
TK-10 renal = test system: TK-10 renal
U251 CNS = test system: U251 CNS
UACC-257 melanoma = test system: UACC-257 melanoma
UACC-62 melanoma = test system: UACC-62 melanoma
UO-31 renal = test system: UO-31 renal

COc1ccc(-n2c(SCC(=O)Nc3ccc(-c4nc5ccccc5[nH]4)cc3)nc3ccccc3c2=O)cc1
GI50 (786-0 renal): 17.7 µM | TGI (786-0 renal): 34.2 µM | GI50 (A498 renal): > 100 µM | TGI (A498 renal): > 100 µM | GI50 (A549 NSCLC): 3.58 µM | TGI (A549 NSCLC): 14.2 µM | GI50 (ACHN renal): 17.1 µM | TGI (ACHN renal): 33.7 µM | GI50 (BT-549 breast): 8.06 µM | TGI (BT-549 breast): 24.5 µM | GI50 (CAKI-1 renal): 29.7 µM | TGI (CAKI-1 renal): > 100 µM | GI50 (CCRF-CEM leukemia): 6.15 µM | TGI (CCRF-CEM leukemia): > 100 µM | GI50 (COLO 205 colon): 28.3 µM | TGI (COLO 205 colon): 76.6 µM | GI50 (DU-145 prostate): 10.9 µM | TGI (DU-145 prostate): 33 µM | GI50 (EKVX NSCLC): 47.2 µM | TGI (EKVX NSCLC): > 100 µM | GI50 (HCC-2998 colon): 14.3 µM | TGI (HCC-2998 colon): 46 µM | GI50 (HCT-116 colon): 4.88 µM | TGI (HCT-116 colon): 26.2 µM | GI50 (HCT-15 colon): 2.95 µM | TGI (HCT-15 colon): 12 µM | GI50 (HL-60(TB) leukemia): 9.91 µM | TGI (HL-60(TB) leukemia): > 100 µM | GI50 (HOP-62 NSCLC): 23.3 µM | TGI (HOP-62 NSCLC): 59.6 µM | GI50 (HOP-92 NSCLC): 12.7 µM | TGI (HOP-92 NSCLC): 31.3 µM | GI50 (HS 578T breast): 21.6 µM | TGI (HS 578T breast): 71.5 µM | GI50 (HT29 colon): 15 µM | TGI (HT29 colon): 36.5 µM | GI50 (IGROV1 ovarian): 15.2 µM | TGI (IGROV1 ovarian): 42.9 µM | GI50 (K-562 leukemia): 4.82 µM | TGI (K-562 leukemia): > 100 µM | GI50 (KM12 colon): 51.4 µM | TGI (KM12 colon): > 100 µM | GI50 (LOX IMVI melanoma): 2.1 µM | TGI (LOX IMVI melanoma): 3.91 µM | GI50 (M14 melanoma): 13.1 µM | TGI (M14 melanoma): 55.5 µM | GI50 (MALME-3M melanoma): 2.58 µM | TGI (MALME-3M melanoma): 16.2 µM | GI50 (MCF7 breast): 2.05 µM | TGI (MCF7 breast): 5.11 µM | GI50 (MDA-MB-231 breast): 16.2 µM | TGI (MDA-MB-231 breast): 49.6 µM | GI50 (MDA-MB-435): 9.17 µM | TGI (MDA-MB-435): 27.6 µM | GI50 (MOLT-4 leukemia): 5.85 µM | TGI (MOLT-4 leukemia): > 100 µM | GI50 (NCI-H226 lung): > 100 µM | TGI (NCI-H226 lung): > 100 µM | GI50 (NCI-H23 lung): 10.2 µM | TGI (NCI-H23 lung): 35.1 µM | GI50 (NCI-H460 lung): 3.39 µM | TGI (NCI-H460 lung): 12.1 µM | GI50 (NCI-H522 lung): 14.5 µM | TGI (NCI-H522 lung): 32.3 µM | GI50 (NCI/ADR-RES ovarian): 16.7 µM | TGI (NCI/ADR-RES ovarian): > 100 µM | GI50 (OVCAR-3 ovarian): 18 µM | TGI (OVCAR-3 ovarian): 39.7 µM | GI50 (OVCAR-4 ovarian): 7.74 µM | TGI (OVCAR-4 ovarian): 20.8 µM | GI50 (OVCAR-5 ovarian): 23.7 µM | TGI (OVCAR-5 ovarian): > 100 µM | GI50 (OVCAR-8 ovarian): 18.1 µM | TGI (OVCAR-8 ovarian): 39.6 µM | GI50 (PC-3 prostate): 18 µM | TGI (PC-3 prostate): 62.9 µM | GI50 (RPMI-8226 leukemia): 3.72 µM | TGI (RPMI-8226 leukemia): 70.5 µM | GI50 (RXF 393 renal): 12.7 µM | TGI (RXF 393 renal): 27.3 µM | GI50 (SF-268 CNS): 42.9 µM | TGI (SF-268 CNS): > 100 µM | GI50 (SF-295 CNS): 13.3 µM | TGI (SF-295 CNS): 27.9 µM | GI50 (SF-539 CNS): 14.1 µM | TGI (SF-539 CNS): 27.8 µM | GI50 (SK-MEL-2 melanoma): 50.7 µM | TGI (SK-MEL-2 melanoma): > 100 µM | GI50 (SK-MEL-28 melanoma): 3.52 µM | TGI (SK-MEL-28 melanoma): 13.4 µM | GI50 (SK-MEL-5 melanoma): 14 µM | TGI (SK-MEL-5 melanoma): 30.4 µM | GI50 (SK-OV-3 ovarian): > 100 µM | TGI (SK-OV-3 ovarian): > 100 µM | GI50 (SN12C renal): 11.3 µM | TGI (SN12C renal): 25.6 µM | GI50 (SNB-19 CNS): 17.9 µM | TGI (SNB-19 CNS): 60.2 µM | GI50 (SNB-75 CNS): 19.9 µM | TGI (SNB-75 CNS): 91.9 µM | GI50 (SW-620 colon): 6.63 µM | TGI (SW-620 colon): 42.5 µM | GI50 (T-47D breast): 17.3 µM | TGI (T-47D breast): 36.7 µM | GI50 (TK-10 renal): 21.6 µM | TGI (TK-10 renal): 42 µM | GI50 (U251 CNS): 15.1 µM | TGI (U251 CNS): 31.5 µM | GI50 (UACC-257 melanoma): 19 µM | TGI (UACC-257 melanoma): 39.2 µM | GI50 (UACC-62 melanoma): 15.8 µM | TGI (UACC-62 melanoma): 30.5 µM | GI50 (UO-31 renal): 11.8 µM | TGI (UO-31 renal): 29.1 µM
